Tests used:
rats = test: Learned helplessness experiment (conditioned avoidance test); type: in vivo; conditions: for Incubation period of escape / Number of times of successful avoidance: one week, test 24 h after last administration, n = 10
Description: (1) Principles • This is an animal model of depression. In this experiment, an animal is placed under conditions with aversive stimulus which it can't escape. […] This is a well recognized depression state, in which the level of catecholamine in the animal's brain is reduced. An antidepressant can act against this state. The learned helplessness model is sensitive to a variety of antidepressants used in a sub-long period (3-7 d), including tricyclic antidepressants, monoamine oxidase inhibitors, monoamine reuptake inhibitors and atypical antidepressants.
(2) Test Method • The animals are grouped. The pre-shock animals are generated the first day by performing inescapable electric shock. The pre-shock animals are given foot electric shock (0.8 mA, 15 s) for 60 times (1 min interval). Rats in the control group are only put into the cage for a same period of time but without any electric shock. • The administration of drugs starts the next day and lasts for one week. […] The conditioned avoidance test is conducted 24 h after the last administration to determine the number of times of successful avoidance and the incubation period of escape.

DA Transporter (hDAT) = DA Transporter (hDAT) (Homo sapiens, UniProt Q01959); test: Inhibition of [3H]-DA reuptake in HEK 293 cells stably expressing hDAT; conditions: HEK293, read-out: DA Reuptake Inhibition
Sequence of DA Transporter (hDAT) (Q01959 whole entry): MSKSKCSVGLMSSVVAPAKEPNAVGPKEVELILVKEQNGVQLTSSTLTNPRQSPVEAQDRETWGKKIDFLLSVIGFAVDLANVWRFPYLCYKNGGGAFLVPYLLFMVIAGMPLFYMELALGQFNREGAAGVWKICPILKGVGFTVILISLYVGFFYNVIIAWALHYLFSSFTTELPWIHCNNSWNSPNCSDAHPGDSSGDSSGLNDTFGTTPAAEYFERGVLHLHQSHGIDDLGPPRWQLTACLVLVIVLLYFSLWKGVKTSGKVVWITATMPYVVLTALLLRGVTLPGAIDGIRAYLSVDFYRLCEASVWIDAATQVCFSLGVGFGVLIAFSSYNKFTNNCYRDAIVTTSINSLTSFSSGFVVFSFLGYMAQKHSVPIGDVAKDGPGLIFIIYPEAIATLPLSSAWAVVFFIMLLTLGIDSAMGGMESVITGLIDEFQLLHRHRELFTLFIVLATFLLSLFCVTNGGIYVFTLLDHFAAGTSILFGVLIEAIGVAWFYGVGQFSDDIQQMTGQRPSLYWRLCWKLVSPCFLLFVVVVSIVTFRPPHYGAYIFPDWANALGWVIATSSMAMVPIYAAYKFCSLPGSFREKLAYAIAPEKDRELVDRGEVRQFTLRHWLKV

NA reuptake = test: Yohimbine toxicity enhancement in mice; type: in vivo; conditions: for Mortality (%) 1 h / Mortality (%) 2 h / Mortality (%) 4 h / Mortality (%) 5 h / Mortality (%) 24 h: Yohimbine 25 mg/kg s.c. 1 h later, n = 10
Description: (§1) Tests of the 5-hydroxytryptophan (DL-5-HTP) potentiation in mice, Yohimbine toxicity enhancement in mice and oxidation tremors can verify a compound's inhibition effect on 5-HT, NA and DA reuptake. Compound VI-2 is selected for the tests.
a) Principles • Yohimbine can prevent the binding of NA to the receptor by occupying α2 receptor. If an antidepressant which inhibits the deactivation of NA or inhibits NA reuptake is taken together with Yohimbine, an individual may be poisoned even to death due to the raised NA concentration.
b) Test Method • This test consists of 5 experimental groups: Yohimbine control group, VI-2-1 (30 mg/kg) group, VI-2-2 (18 mg/kg) group, VI2-3 (11 mg/kg) group and VI-2-4 (6.5 mg/kg) group. The highest dose used in the DL-5-HTP potentiation test in mice is designated as the reference for the highest dose group, down from which 4 dosage groups are set with a dose ratio of 0.6 across groups. For each VI-2 group, the compound at the corresponding dosage is administrated orally, or as in the case of the Yohimbine control group, N.S is given to the animals. One hour after the treatment, Yohimbine at 25 mg/kg (life-threatening dose for the animal) is administrated by subcutaneous injection to the mice in all groups. The mortality in each group is observed and recorded at 1, 2, 4, 5 and 24 h after the administration of Yohimbine. The ED50 value is calculated accordingly.

male Kunming mice = test: Mice forced swimming test; type: in vivo
Method in brief: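 Mice pre-screened by 6-min swim in 25° C. water, 10 cm deep; those stopping at about 70-160 s used 24 h later. Samples given intragastrically at 10 mL·kg^−1, saline as blank, and 1 h later mice swum 6 min. Immobility over last 4 min recorded, t-test.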

5-HT reuptake = test: 5-Hydroxytryptophan (DL-5-HTP) potentiation in mice (head twitches); type: in vivo; conditions: for Frequency of head twitches 0 (number of mice) / Frequency of head twitches I (number of mice) / Frequency of head twitches II (number of mice) / Frequency of head twitches III (number of mice): Pargyline 75 mg/kg s.c., DL-5-HTP i.v.
Description: as §1
a) Principles • Taking DL-5-HTP as the precursor of 5-HT, the MAOs inhibitor Pargyline can inhibit the enzymatic degradation […]. While in mice, characteristic symptoms—head twitches can be observed.
b) Test Method • Three different dosages of VI-2 are used: 30, 15 and 7.5 mg/kg. The mouse is treated as follows: first, intraperitoneal injection of the compound, 0.2 mL/10 g; 30 min later, subcutaneous injection of Pargyline, 75 mg/kg; and 90 min later, intraveneous injection of DL-5-HTP. The induced head twitches of the mouse are observed 15 min later.

[1] = test system: Histidine auxotroph mutant of mouse salmonella TA97, TA98, TA100 and TA102; type: cell-based
Description: 5. […] 6. Bacterial Reverse Mutation Test of Compounds VI-1 VI-2 and VI16 • Strains: Histidine auxotroph mutant of mouse salmonella TA97, TA98, TA100 and TA102. • Test method: The one reported in Maron DM et al: (1983) Mutay Res. 113, 173-216 is used. • Results: The test consists of two parts, i.e., −S9 and +S9. […] No bacteriostatic actions to all the strains are observed at all the other dosages, and the growth background is good.

NA Transporter (hNAT) = NA Transporter (hNAT) (Homo sapiens, UniProt P23975); test: Inhibition of [3H]-NA reuptake in HEK 293 cells stably expressing hNAT; conditions: HEK293, read-out: NA Reuptake Inhibition
Sequence of NA Transporter (hNAT) (P23975 whole entry): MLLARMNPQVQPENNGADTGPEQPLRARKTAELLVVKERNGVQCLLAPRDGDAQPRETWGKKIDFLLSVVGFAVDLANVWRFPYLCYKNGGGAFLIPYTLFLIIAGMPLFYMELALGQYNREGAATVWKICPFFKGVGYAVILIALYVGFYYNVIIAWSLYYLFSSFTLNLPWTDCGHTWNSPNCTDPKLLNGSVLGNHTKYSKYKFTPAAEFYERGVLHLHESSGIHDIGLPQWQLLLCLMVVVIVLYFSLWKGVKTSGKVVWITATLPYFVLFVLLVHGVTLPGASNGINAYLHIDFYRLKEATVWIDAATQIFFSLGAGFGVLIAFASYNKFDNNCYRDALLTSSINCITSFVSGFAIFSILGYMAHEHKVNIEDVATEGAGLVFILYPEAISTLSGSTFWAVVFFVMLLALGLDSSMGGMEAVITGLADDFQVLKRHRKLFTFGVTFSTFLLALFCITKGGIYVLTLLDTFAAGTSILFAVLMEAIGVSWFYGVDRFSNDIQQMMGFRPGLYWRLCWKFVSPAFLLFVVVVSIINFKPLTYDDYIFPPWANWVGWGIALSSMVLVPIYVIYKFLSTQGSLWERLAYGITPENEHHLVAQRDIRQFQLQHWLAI

[2] = Venlafaxine 30 mg/kg, VI-2 at 3 doses (20, 10, 5 mg/kg)

Compound: CN(C)CCC(c1ccc(Cl)c(Cl)c1)N1CCCC1 (stereo not shown) [VI-2, N,N-dimethyl-3-(3,4-dichlorophenyl)-3-(pyrrolidin-1-yl)-propylamine]
- Incubation period of escape (rats; 5 mg/kg): 140.3 ± 195.44 s
- Number of times of successful avoidance (rats; 5 mg/kg): 21.2 ± 6.73
- Incubation period of escape (rats; 10 mg/kg): 188.3 ± 178.38 s
- Number of times of successful avoidance (rats; 10 mg/kg): 19.5 ± 8.83
- Incubation period of escape (rats; 20 mg/kg): 171.1 ± 159.69 s
- Number of times of successful avoidance (rats; 20 mg/kg): 18.9 ± 9.35
- incubation period of escape (in words) (rats; [2]): significantly shortened incubation period of escape
- times of successful avoidance (in words) (rats; [2]): relatively more times of successful avoidance
- inhibition at 10 µM (DA Transporter (hDAT)): 103%
- Mortality (%) 1 h (NA reuptake; 6.5 mg/kg oral): 0%
- Mortality (%) 2 h (NA reuptake; 6.5 mg/kg oral): 0%
- Mortality (%) 4 h (NA reuptake; 6.5 mg/kg oral): 0%
- Mortality (%) 5 h (NA reuptake; 6.5 mg/kg oral): 0%
- Mortality (%) 24 h (NA reuptake; 6.5 mg/kg oral): 0%
- Mortality (%) 1 h (NA reuptake; 11 mg/kg oral): 0%
- Mortality (%) 2 h (NA reuptake; 11 mg/kg oral): 1%
- Mortality (%) 4 h (NA reuptake; 11 mg/kg oral): 0%
- Mortality (%) 5 h (NA reuptake; 11 mg/kg oral): 0%
- Mortality (%) 24 h (NA reuptake; 11 mg/kg oral): 0%
- Mortality (%) 1 h (NA reuptake; 18 mg/kg oral): 1%
- Mortality (%) 2 h (NA reuptake; 18 mg/kg oral): 2%
- Mortality (%) 4 h (NA reuptake; 18 mg/kg oral): 0%
- Mortality (%) 5 h (NA reuptake; 18 mg/kg oral): 0%
- Mortality (%) 24 h (NA reuptake; 18 mg/kg oral): 0%
- Mortality (%) 1 h (NA reuptake; 30 mg/kg oral): 2%
- Mortality (%) 2 h (NA reuptake; 30 mg/kg oral): 0%
- Mortality (%) 4 h (NA reuptake; 30 mg/kg oral): 0%
- Mortality (%) 5 h (NA reuptake; 30 mg/kg oral): 0%
- Mortality (%) 24 h (NA reuptake; 30 mg/kg oral): 0%
- enhancement of Yohimbine toxicity (in words) (NA reuptake; 30, 18 and 11 mg/kg oral, significant dose-effect relationship): enhances the toxicity of Yohimbine
- ED50 (NA reuptake; Mus musculus, oral, Bliss method, DAS statistical software): 32.8 mg/kg
- effect in the forced swimming test (in words) (male Kunming mice; 20 mg/kg): significant reduction in the immobility time
- IT (sec), immobility time (male Kunming mice; 20.0 mg/kg single intragastric administration, 1 h before test, last 4 min of 6 min, n=12): 74.9 ± 37.8 s
- Frequency of head twitches 0 (number of mice) (5-HT reuptake; 7.5 mg/kg intraperitoneal): 1
- Frequency of head twitches I (number of mice) (5-HT reuptake; 7.5 mg/kg intraperitoneal): 3
- Frequency of head twitches II (number of mice) (5-HT reuptake; 7.5 mg/kg intraperitoneal): 6
- Frequency of head twitches III (number of mice) (5-HT reuptake; 7.5 mg/kg intraperitoneal): 0
- Frequency of head twitches 0 (number of mice) (5-HT reuptake; 15 mg/kg intraperitoneal): 0
- Frequency of head twitches I (number of mice) (5-HT reuptake; 15 mg/kg intraperitoneal): 0
- Frequency of head twitches II (number of mice) (5-HT reuptake; 15 mg/kg intraperitoneal): 4
- Frequency of head twitches III (number of mice) (5-HT reuptake; 15 mg/kg intraperitoneal): 6
- Frequency of head twitches 0 (number of mice) (5-HT reuptake; 30 mg/kg intraperitoneal): 0
- Frequency of head twitches I (number of mice) (5-HT reuptake; 30 mg/kg intraperitoneal): 0
- Frequency of head twitches II (number of mice) (5-HT reuptake; 30 mg/kg intraperitoneal): 0
- Frequency of head twitches III (number of mice) (5-HT reuptake; 30 mg/kg intraperitoneal): 10
- enhancement of the effect of 5-HTP (in words) (5-HT reuptake; 30, 15 and 7.5 mg/kg, significant dose-effect relationship): significantly enhance the effect of 5-HTP
- bacteriostatic action ([1]; 5000 μg per dish, TA98 without S9 and TA97 with S9, none at other dosages): bacteriostatic action is showed
- Ames test result ([1]; TA97, TA98, TA100, TA102, with or without S9, all test dosages): negative
- inhibition at 10 µM (NA Transporter (hNAT)): 100%
